According to publication PMC2845396 (Clinical cancer research : an official journal of the …, 2009):

Columns and labels:
DNMT = details: plasma concentration reached only with 5-AC 75 mg/m^2/d; cited from earlier work
Epstein Barr Virus (EBV) = assay: EBV viral load in PBMC by real-time PCR; format: in vivo, human; details: after 5-AC treatment
[1] = test system: DNA methyltransferase (DNMT); assay: DNA methyltransferase enzyme activity in paired tumor biopsies; format: in vivo, human; details: one patient with hepatocellular carcinoma; 5-AC 15 mg/m^2/d for 14 days
advanced solid tumor = details: 5-AC 20 – 25 mg/m^2 daily for 10 days; cited from earlier work
[2] = Plasma pharmacokinetics of PB and metabolites PA and PG; details: PB continuous infusion over 24 hours, 400 mg/kg/d, Overall
[3] = human, in vivo, 400 mg/kg/day
G1/G0 growth arrest = details: cited from earlier work
[4] = test system: acetylated histones H3 and H4; assay: Histone H3 or H4 acetylation in PBMC, summary over patients; format: in vivo, human
[5] = intravenous administration for 5 days, refractory solid tumors; cited from earlier work
[6] = Toxicity in patients, graded by NCI CTC version 2.0; format: in vivo, human

SMILES: Nc1ncn([C@@H]2O[C@H](CO)[C@@H](O)[C@H]2O)c(=O)n1 [5-AC, 5-azacytidine]
- concentration shown in vitro to cause DNMT inhibition (DNMT): 5 µM
- patients with reduced viral load (Epstein Barr Virus (EBV)): Three
- inhibition of DNMT activity [1]: 75% and about 75%
- duration of stable disease (advanced solid tumor): 4 – 8 months

SMILES: O=C(O)Cc1ccccc1 [PA, phenylacetic acid]
- Tmax ([2]; mean (range)): 25.30 (23.83–27.98) h
- AUC[INF] ([2]; mean ± SD): 26680 ± 11236 µM·h
- Cl ([2]; mean ± SD): 9.5 ± 7.6 L/h
- Cmax ([2]; plasma, mean ± SD): 1400 ± 504 µM

SMILES: O=C([O-])CCCc1ccccc1.[Na+] [PB, sodium phenylbutyrate]
- Vd [3]: 14.0 ± 8.0 L
- time to G1/G0 growth arrest (G1/G0 growth arrest): ≤ 96 h
- patients with increased acetylation ([4]; PB infused for just 24 hours, Four of 8 patients): 50%
- patients with increased acetylation ([4]; dose schedule B, PB infused for 7 days, 3 of 5 patients): 60%
- maximum tolerated dose [5]: 410 mg/kg/day
- confusion, G 3 (CTC grade 3), patients ([6]; human, in vivo): 1
- patients with neuro-cortical toxicity attributable to PB ([6]; of 27 patients, PB 400 mg/kg/day, intermittent or continuous 7 day infusion): 3
